According to patent US20220096516A1, “OLIGONUCLEOTIDE MOLECULE AND APPLICATION THEREOF IN TUMOR THERAPY” (Ractigen Therapeutics, priority 2019, published 2022):
d = 2'-deoxy (DNA); r = 2'-OH (RNA)

Tested on: LHPP gene
Assay: High-throughput screening of saRNAs targeting LHPP promoter: LHPP mRNA by one-step RT-qPCR in Huh7 cells
Type: cell-based, human
Conditions: 10 nM saRNA, 72 hours, relative to control (Mock)
Procedure, shortened: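 LHPP transcript level relative to mock, normalised to the geometric mean of the HPRT1 and TBP reference genes, measured by one-step RT-qPCR on crude lysates. Huh7 cells had been RNAiMax-transfected with each saRNA at 10 nM for 72 h.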

Substance | Fold of changes in relative LHPP mRNA expression level | Fold of changes in relative LHPP mRNA expression level (log2)
RAG7-175: saRNA duplex; sense UUGCCUUUGACCUUUCUUATT (SEQ ID NO: 60), antisense UAAGAAAGGUCAAAGGCAATT (SEQ ID NO: 224) (sugars from the 5' end r19 d2, backbone not given here) | 1.34 fold | 0.42 log2
RAG7-176: saRNA duplex; sense UUUGCCUUUGACCUUUCUUTT (SEQ ID NO: 110), antisense AAGAAAGGUCAAAGGCAAATT (SEQ ID NO: 274) (sugars from the 5' end r19 d2, backbone not given here) | 1.20 fold | 0.26 log2
RAG7-179: saRNA duplex; sense CAAUUUGCCUUUGACCUUUTT (SEQ ID NO: 39), antisense AAAGGUCAAAGGCAAAUUGTT (SEQ ID NO: 203) (sugars from the 5' end r19 d2, backbone not given here) | 1.45 fold | 0.53 log2
RAG7-180: saRNA duplex; sense UCAAUUUGCCUUUGACCUUTT (SEQ ID NO: 58), antisense AAGGUCAAAGGCAAAUUGATT (SEQ ID NO: 222) (sugars from the 5' end r19 d2, backbone not given here) | 1.35 fold | 0.43 log2
RAG7-181: saRNA duplex; sense CUCAAUUUGCCUUUGACCUTT (SEQ ID NO: 97), antisense AGGUCAAAGGCAAAUUGAGTT (SEQ ID NO: 261) (sugars from the 5' end r19 d2, backbone not given here) | 1.22 fold | 0.29 log2
RAG7-182: saRNA duplex; sense UCUCAAUUUGCCUUUGACCTT (SEQ ID NO: 85), antisense GGUCAAAGGCAAAUUGAGATT (SEQ ID NO: 249) (sugars from the 5' end r19 d2, backbone not given here) | 1.26 fold | 0.33 log2
RAG7-183: saRNA duplex; sense GUCUCAAUUUGCCUUUGACTT (SEQ ID NO: 27), antisense GUCAAAGGCAAAUUGAGACTT (SEQ ID NO: 191) (sugars from the 5' end r19 d2, backbone not given here) | 1.51 fold | 0.59 log2
RAG7-184: saRNA duplex; sense UGUCUCAAUUUGCCUUUGATT (SEQ ID NO: 16), antisense UCAAAGGCAAAUUGAGACATT (SEQ ID NO: 180) (sugars from the 5' end r19 d2, backbone not given here) | 1.59 fold | 0.67 log2
RAG7-185: saRNA duplex; sense UUGUCUCAAUUUGCCUUUGTT (SEQ ID NO: 116), antisense CAAAGGCAAAUUGAGACAATT (SEQ ID NO: 280) (sugars from the 5' end r19 d2, backbone not given here) | 1.19 fold | 0.25 log2
RAG7-186: saRNA duplex; sense CUUGUCUCAAUUUGCCUUUTT (SEQ ID NO: 78), antisense AAAGGCAAAUUGAGACAAGTT (SEQ ID NO: 242) (sugars from the 5' end r19 d2, backbone not given here) | 1.28 fold | 0.35 log2
RAG7-187: saRNA duplex; sense UCUUGUCUCAAUUUGCCUUTT (SEQ ID NO: 123), antisense AAGGCAAAUUGAGACAAGATT (SEQ ID NO: 287) (sugars from the 5' end r19 d2, backbone not given here) | 1.17 fold | 0.22 log2
RAG7-188: saRNA duplex; sense UUCUUGUCUCAAUUUGCCUTT (SEQ ID NO: 21), antisense AGGCAAAUUGAGACAAGAATT (SEQ ID NO: 185) (sugars from the 5' end r19 d2, backbone not given here) | 1.55 fold | 0.64 log2
RAG7-189: saRNA duplex; sense CUUCUUGUCUCAAUUUGCCTT (SEQ ID NO: 35), antisense GGCAAAUUGAGACAAGAAGTT (SEQ ID NO: 199) (sugars from the 5' end r19 d2, backbone not given here) | 1.47 fold | 0.56 log2
RAG7-190: saRNA duplex; sense CCUUCUUGUCUCAAUUUGCTT (SEQ ID NO: 130), antisense GCAAAUUGAGACAAGAAGGTT (SEQ ID NO: 294) (sugars from the 5' end r19 d2, backbone not given here) | 1.16 fold | 0.22 log2
RAG7-191: saRNA duplex; sense GCCUUCUUGUCUCAAUUUGTT (SEQ ID NO: 88), antisense CAAAUUGAGACAAGAAGGCTT (SEQ ID NO: 252) (sugars from the 5' end r19 d2, backbone not given here) | 1.25 fold | 0.32 log2
RAG7-193: saRNA duplex; sense GUGCCUUCUUGUCUCAAUUTT (SEQ ID NO: 113), antisense AAUUGAGACAAGAAGGCACTT (SEQ ID NO: 277) (sugars from the 5' end r19 d2, backbone not given here) | 1.19 fold | 0.26 log2
RAG7-194: saRNA duplex; sense GGUGCCUUCUUGUCUCAAUTT (SEQ ID NO: 48), antisense AUUGAGACAAGAAGGCACCTT (SEQ ID NO: 212) (sugars from the 5' end r19 d2, backbone not given here) | 1.38 fold | 0.47 log2
RAG7-195: saRNA duplex; sense AGGUGCCUUCUUGUCUCAATT (SEQ ID NO: 28), antisense UUGAGACAAGAAGGCACCUTT (SEQ ID NO: 192) (sugars from the 5' end r19 d2, backbone not given here) | 1.51 fold | 0.59 log2
RAG7-196: saRNA duplex; sense CAGGUGCCUUCUUGUCUCATT (SEQ ID NO: 38), antisense UGAGACAAGAAGGCACCUGTT (SEQ ID NO: 202) (sugars from the 5' end r19 d2, backbone not given here) | 1.45 fold | 0.54 log2
RAG7-198: saRNA duplex; sense UACAGGUGCCUUCUUGUCUTT (SEQ ID NO: 134), antisense AGACAAGAAGGCACCUGUATT (SEQ ID NO: 298) (sugars from the 5' end r19 d2, backbone not given here) | 1.16 fold | 0.21 log2
